Data from the NIST ThermoML archive (doi:10.1016/j.jct.2013.08.020).
± gives the expanded uncertainty stated by the source.

Assays:
[1] = refractive index (Na D-line) (dimensionless); conditions: 298.15 K; 101 kPa; Liquid; Standard Abbe refractometry
[2] = Liquid; for vapor or sublimation pressure: Ebulliometric method (Recirculating still)

| refractive index [1] | vapor or sublimation pressure ([2]; 351.45 K) | mass density ([2]; 298.15 K, 101 kPa, Vibrating tube method) | vapor or sublimation pressure ([2]; 373.15 K) | SMILES |
| --- | --- | --- | --- | --- |
| 1.35924 ± 0.00032 | 101.3 ± 0.5 kPa | – | – | CCO [ethanol] |
| 1.43851 ± 0.00037 | – | 1049.68 ± 0.27 kg/m3 | – | OCCCO [propan-1,3-diol] |
| 1.33237 ± 0.00032 | – | – | 101.3 ± 0.5 kPa | O [water] |
